Measured values published in the NIST ThermoML archive (doi:10.1016/j.jct.2004.12.001).

How the values were obtained:
[1] = xn = mol fraction of the nth substance listed; settings: 303.15 K, 101 kPa, Liquid; for speed of sound: Frequency=2 MHz
[2] = 303.15 K, Liquid; for mass density: 101 kPa; for speed of sound: 101.33 kPa, Frequency=2 MHz

CC(CC(C)(C)C)CP(=O)(O)CC(C)CC(C)(C)C (stereo unspecified) [bis-(2,4,4-trimethylpentyl) phosphinic acid] + Cc1ccccc1
[1]
Settings	mass density [kg/m3]	speed of sound [m/s]
x1 = 0.0781	875.6	1266.5
x1 = 0.1268	882.5	1266.9
x1 = 0.1843	888	1267.5
x1 = 0.2532	893.8	1268.2
x1 = 0.3371	899.7	1269.2
x1 = 0.4416	900.9	1274.6
x1 = 0.5755	906.4	1278
x1 = 0.7531	913.1	1284
x1 = 1	924.7	1290.4

CC(CC(C)(C)C)CP(=O)(O)CC(C)CC(C)(C)C (stereo unspecified) [bis-(2,4,4-trimethylpentyl) phosphinic acid] + c1ccccc1
[1]
Settings	mass density [kg/m3]	speed of sound [m/s]
x1 = 0.0666	886.8	1252.2
x1 = 0.109	891.9	1255.2
x1 = 0.1599	895.6	1258.1
x1 = 0.2222	901.1	1259.1
x1 = 0.2999	904.9	1261.3
x1 = 0.3999	908.4	1263.2
x1 = 0.5332	912.3	1266.8
x1 = 0.7199	915.3	1274.3
x1 = 1	924.7	1290.4

c1ccccc1 [benzene] + CC(CC(C)(C)C)CP(=O)(O)CC(C)CC(C)(C)C
[1], x2 = 0
Settings	mass density [kg/m3]	speed of sound [m/s]
–	872	1257

CC(CC(C)(C)C)CP(=O)(O)CC(C)CC(C)(C)C (stereo unspecified) [bis-(2,4,4-trimethylpentyl) phosphinic acid]
[2]
Settings	mass density [kg/m3]	speed of sound [m/s]
–	924.7	1290.4

Cc1ccccc1 [toluene]
[2]
Settings	mass density [kg/m3]	speed of sound [m/s]
–	866.7	1271.9

c1ccccc1 [benzene]
[2]
Settings	mass density [kg/m3]	speed of sound [m/s]
–	872	1257

Cc1ccccc1 [toluene] + CC(CC(C)(C)C)CP(=O)(O)CC(C)CC(C)(C)C
[1], x2 = 0
Settings	mass density [kg/m3]	speed of sound [m/s]
–	866.7	1271.9
